Experiments:
[1] = target: T1, human B1R (bradykinin receptor 1) (Homo sapiens, UniProt P46663); experiment: FLIPR Ca2+ assay (Fluo-4) on CHO K1 cells stably transfected with the human B1R gene (hB1R cells): % inhibition at 10 μM / IC50, agonist Lys-Des-Arg9-bradykinin; type: cell-based; details: CHO-K1, human B1R
T1 construct: expressed in transfected cells; host or cells: CHO K1 cells
T1 sequence (P46663 1-353): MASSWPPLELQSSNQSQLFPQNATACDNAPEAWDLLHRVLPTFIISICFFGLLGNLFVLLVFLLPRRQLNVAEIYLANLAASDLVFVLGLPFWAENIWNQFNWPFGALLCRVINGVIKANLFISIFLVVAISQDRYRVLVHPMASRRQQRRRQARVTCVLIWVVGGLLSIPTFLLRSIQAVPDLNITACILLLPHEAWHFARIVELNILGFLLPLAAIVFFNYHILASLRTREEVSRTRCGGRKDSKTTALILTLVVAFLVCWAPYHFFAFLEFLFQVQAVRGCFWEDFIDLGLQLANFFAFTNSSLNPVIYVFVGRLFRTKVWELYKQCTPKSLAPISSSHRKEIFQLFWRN
How it was run: (§1)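 Stably transfected CHO K1 cells loaded with Fluo-4 and read on FLIPR (λex 488, λem 540 nm; peak fluorescence). Test substance (10 μM) added first, then after 10–20 min the agonist at EC80; % inhibition versus maximum achievable inhibition. IC50 from several concentrations, n=2–3, N≥2.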

[2] = target: T2, rat B1R (bradykinin receptor 1) (Rattus norvegicus, UniProt P97583); experiment: FLIPR Ca2+ assay (Fluo-4) on CHO K1 cells stably transfected with the B1R gene of the rat (rB1R cells): % inhibition at 10 μM / IC50, agonist Des-Arg9-bradykinin; type: cell-based; details: CHO-K1, rat B1R
T2 construct: expressed in transfected cells; host or cells: CHO K1 cells
T2 sequence (P97583 1-337): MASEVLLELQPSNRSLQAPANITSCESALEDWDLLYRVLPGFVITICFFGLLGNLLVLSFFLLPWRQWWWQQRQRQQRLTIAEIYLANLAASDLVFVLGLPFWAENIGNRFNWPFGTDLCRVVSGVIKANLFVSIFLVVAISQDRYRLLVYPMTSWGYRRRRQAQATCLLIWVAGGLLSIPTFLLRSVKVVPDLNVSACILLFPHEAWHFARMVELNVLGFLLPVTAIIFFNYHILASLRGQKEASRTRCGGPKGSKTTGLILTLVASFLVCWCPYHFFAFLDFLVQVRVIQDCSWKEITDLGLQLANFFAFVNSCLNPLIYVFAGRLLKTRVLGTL
How it was run: as §1

CN(C)C1(c2ccc(F)cc2)CCC2(CCN(C(=O)c3ccc4c(c3)C(NC(=O)c3ccccc3Cl)CC4)CC2)CC1 (stereo not shown) [Ind_CC-099, 2-chloro-N-[6-[9-dimethylamino-9-(4-fluorophenyl)-3-azaspiro[5.5]undecane-3-carbonyl]-2,3-dihydro-1H-inden-1-yl]-benzamide]
inhibition at 10 µM [1]: 39%
inhibition at 10 µM [2]: 103%

O=C(NC1CCc2ccc(C(=O)N3CCC4(CCN(c5ccncc5)CC4)C3)cc21)c1ccccc1Cl (stereo not shown) [Ind_CC-100, 2-chloro-N-[6-(8-pyridin-4-yl-2,8-diazaspiro[4.5]decane-2-carbonyl)-2,3-dihydro-1H-inden-1-yl]-benzamide]
inhibition at 10 µM [1]: 100%
inhibition at 10 µM [2]: 104%

O=C(NC1CCc2ccc(C(=O)N3CCC4(CC3)CCN(c3ccncc3)C4)cc21)c1ccccc1Cl (stereo not shown) [Ind_CC-101, 2-chloro-N-[6-(2-pyridin-4-yl-2,8-diazaspiro[4.5]decane-8-carbonyl)-2,3-dihydro-1H-inden-1-yl]-benzamide]
inhibition at 10 µM [1]: 100%
inhibition at 10 µM [2]: 102%

O=C(NC1CCc2ccc(C(=O)N3CCC4(CC3)CCN(c3cccnc3)CC4)cc21)c1sccc1Cl (stereo not shown) [Ind_CC-102, 3-chloro-N-[6-(9-pyridin-3-yl-3,9-diazaspiro[5.5]undecane-3-carbonyl)-2,3-dihydro-1H-inden-1-yl]-thiophene-2-carboxylic acid amide]
inhibition at 10 µM [1]: 87%
inhibition at 10 µM [2]: 100%

O=C(NC1CCc2ccc(C(=O)N3CCC4(CC3)CCN(c3ccc(F)cc3)CC4)cc21)c1sccc1Cl (stereo not shown) [Ind_CC-103, 3-chloro-N-[6-[9-(4-fluorophenyl)-3,9-diazaspiro[5.5]undecane-3-carbonyl]-2,3-dihydro-1H-inden-1-yl]-thiophene-2-carboxylic acid amide]
inhibition at 10 µM [1]: 93%
inhibition at 10 µM [2]: 62%

O=C(NC1CCc2ccc(C(=O)N3CCC4(CCN(Cc5ccncc5)CC4)CC3)cc21)c1sccc1Cl (stereo not shown) [Ind_CC-104, 3-chloro-N-[6-[9-(pyridin-4-yl-methyl)-3,9-diazaspiro[5.5]undecane-3-carbonyl]-2,3-dihydro-1H-inden-1-yl]-thiophene-2-carboxylic acid amide]
inhibition at 10 µM [1]: 33%
inhibition at 10 µM [2]: 102%

CN(C)C1(c2ccc(F)cc2)CCC2(CCN(C(=O)c3ccc4c(c3)C(NC(=O)c3sccc3Cl)CC4)CC2)CC1 (stereo not shown) [Ind_CC-105, 3-chloro-N-[6-[9-dimethylamino-9-(4-fluorophenyl)-3-azaspiro[5.5]undecane-3-carbonyl]-2,3-dihydro-1H-inden-1-yl]-thiophene-2-carboxylic acid amide]
inhibition at 10 µM [1]: 61%
inhibition at 10 µM [2]: 86%

CN(C(=O)c1ccccc1Cl)C1CCc2ccc(C(=O)N3CCC4(CC3)CCN(c3ccncc3)CC4)cc21 (stereo not shown) [Ind_CC-106, 2-chloro-N-methyl-N-[6-(9-pyridin-4-yl-3,9-diazaspiro[5.5]undecane-3-carbonyl)-2,3-dihydro-1H-inden-1-yl]-benzamide]
inhibition at 10 µM [1]: 100%
inhibition at 10 µM [2]: 100%

CN(C(=O)c1ccccc1Cl)C1CCc2ccc(C(=O)N3CCC4(CC3)CCN(c3cccnc3)CC4)cc21 (stereo not shown) [Ind_CC-107, 2-chloro-N-methyl-N-[6-(9-pyridin-3-yl-3,9-diazaspiro[5.5]undecane-3-carbonyl)-2,3-dihydro-1H-inden-1-yl]-benzamide]
inhibition at 10 µM [1]: 78%
inhibition at 10 µM [2]: 100%

CN(C(=O)c1ccccc1Cl)C1CCc2ccc(C(=O)N3CCC4(CC3)CCN(c3ccc(F)cc3)CC4)cc21 (stereo not shown) [Ind_CC-108, 2-chloro-N-[6-[9-(4-fluorophenyl)-3,9-diazaspiro[5.5]undecane-3-carbonyl]-2,3-dihydro-1H-inden-1-yl]-N-methyl-benzamide]
inhibition at 10 µM [1]: 23%
inhibition at 10 µM [2]: 51%

CN(C(=O)c1ccccc1Cl)C1CCc2ccc(C(=O)N3CCC4(CCN(Cc5ccncc5)CC4)CC3)cc21 (stereo not shown) [Ind_CC-109, 2-chloro-N-methyl-N-[6-[9-(pyridin-4-yl-methyl)-3,9-diazaspiro[5.5]undecane-3-carbonyl]-2,3-dihydro-1H-inden-1-yl]-benzamide]
inhibition at 10 µM [1]: 33%
inhibition at 10 µM [2]: 29%

CN(C(=O)c1ccccc1Cl)C1CCc2ccc(C(=O)N3CCC4(CC3)CCC(c3ccc(F)cc3)(N(C)C)CC4)cc21 (stereo not shown) [Ind_CC-110, 2-chloro-N-[6-[9-dimethylamino-9-(4-fluorophenyl)-3-azaspiro[5.5]undecane-3-carbonyl]-2,3-dihydro-1H-inden-1-yl]-N-methyl-benzamide]
inhibition at 10 µM [1]: 52%
inhibition at 10 µM [2]: 79%

CN(C(=O)c1ccccc1Cl)C1CCc2ccc(C(=O)N3CCC4(CCN(c5ccncc5)CC4)C3)cc21 (stereo not shown) [Ind_CC-111, 2-chloro-N-methyl-N-[6-(8-pyridin-4-yl-2,8-diazaspiro[4.5]decane-2-carbonyl)-2,3-dihydro-1H-inden-1-yl]-benzamide]
inhibition at 10 µM [1]: 100%
inhibition at 10 µM [2]: 101%

CN(C(=O)c1ccccc1Cl)C1CCc2ccc(C(=O)N3CCC4(CC3)CCN(c3ccncc3)C4)cc21 (stereo not shown) [Ind_CC-112, 2-chloro-N-methyl-N-[6-(2-pyridin-4-yl-2,8-diazaspiro[4.5]decane-8-carbonyl)-2,3-dihydro-1H-inden-1-yl]-benzamide]
inhibition at 10 µM [1]: 100%
inhibition at 10 µM [2]: 104%

O=C(c1ccc2c(c1)C(N(C(=O)c1ccccc1Cl)C1CC1)CC2)N1CCC2(CC1)CCN(c1ccncc1)CC2 (stereo not shown) [Ind_CC-113, 2-chloro-N-cyclopropyl-N-[6-(9-pyridin-4-yl-3,9-diazaspiro[5.5]undecane-3-carbonyl)-2,3-dihydro-1H-inden-1-yl]-benzamide]
inhibition at 10 µM [1]: 98%
inhibition at 10 µM [2]: 100%

O=C(c1ccc2c(c1)C(N(C(=O)c1ccccc1Cl)C1CC1)CC2)N1CCC2(CC1)CCN(c1cccnc1)CC2 (stereo not shown) [Ind_CC-114, 2-chloro-N-cyclopropyl-N-[6-(9-pyridin-3-yl-3,9-diazaspiro[5.5]undecane-3-carbonyl)-2,3-dihydro-1H-inden-1-yl]-benzamide]
inhibition at 10 µM [1]: 99%
inhibition at 10 µM [2]: 101%

O=C(c1ccc2c(c1)C(N(C(=O)c1ccccc1Cl)C1CC1)CC2)N1CCC2(CC1)CCN(c1ccc(F)cc1)CC2 (stereo not shown) [Ind_CC-115, 2-chloro-N-cyclopropyl-N-[6-[9-(4-fluorophenyl)-3,9-diazaspiro[5.5]undecane-3-carbonyl]-2,3-dihydro-1H-inden-1-yl]-benzamide]
inhibition at 10 µM [1]: 22%
inhibition at 10 µM [2]: 64%

O=C(c1ccc2c(c1)C(N(C(=O)c1ccccc1Cl)C1CC1)CC2)N1CCC2(CCN(Cc3ccncc3)CC2)CC1 (stereo not shown) [Ind_CC-116, 2-chloro-N-cyclopropyl-N-[6-[9-(pyridin-4-yl-methyl)-3,9-diazaspiro[5.5]undecane-3-carbonyl]-2,3-dihydro-1H-inden-1-yl]-benzamide]
inhibition at 10 µM [1]: 68%
inhibition at 10 µM [2]: 77%

CN(C)C1(c2ccc(F)cc2)CCC2(CCN(C(=O)c3ccc4c(c3)C(N(C(=O)c3ccccc3Cl)C3CC3)CC4)CC2)CC1 (stereo not shown) [Ind_CC-117, 2-chloro-N-cyclopropyl-N-[6-[9-dimethylamino-9-(4-fluorophenyl)-3-azaspiro[5.5]undecane-3-carbonyl]-2,3-dihydro-1H-inden-1-yl]-benzamide]
inhibition at 10 µM [1]: 56%
inhibition at 10 µM [2]: 77%

O=C(c1ccc2c(c1)C(N(C(=O)c1ccccc1Cl)C1CC1)CC2)N1CCC2(CCN(c3ccncc3)CC2)C1 (stereo not shown) [Ind_CC-118, 2-chloro-N-cyclopropyl-N-[6-(8-pyridin-4-yl-2,8-diazaspiro[4.5]decane-2-carbonyl)-2,3-dihydro-1H-inden-1-yl]-benzamide]
inhibition at 10 µM [1]: 100%
inhibition at 10 µM [2]: 103%

O=C(c1ccc2c(c1)C(N(C(=O)c1ccccc1Cl)C1CC1)CC2)N1CCC2(CC1)CCN(c1ccncc1)C2 (stereo not shown) [Ind_CC-119, 2-chloro-N-cyclopropyl-N-[6-(2-pyridin-4-yl-2,8-diazaspiro[4.5]decane-8-carbonyl)-2,3-dihydro-1H-inden-1-yl]-benzamide]
inhibition at 10 µM [1]: 99%
inhibition at 10 µM [2]: 104%

O=C(NC1CCCCc2ccc(C(=O)N3CCC4(CC3)CCN(c3ccncc3)CC4)cc21)c1ccccc1Cl (stereo not shown) [Ind_CC-120, 2-chloro-N-[3-(9-pyridin-4-yl-3,9-diazaspiro[5.5]undecane-3-carbonyl)-6,7,8,9-tetrahydro-5H-benzocyclohepten-5-yl]-benzamide]
inhibition at 10 µM [1]: 56%
inhibition at 10 µM [2]: 99%

O=C(NC1CCCCc2ccc(C(=O)N3CCC4(CC3)CCN(c3cccnc3)CC4)cc21)c1ccccc1Cl (stereo not shown) [Ind_CC-121, 2-chloro-N-[3-(9-pyridin-3-yl-3,9-diazaspiro[5.5]undecane-3-carbonyl)-6,7,8,9-tetrahydro-5H-benzocyclohepten-5-yl]-benzamide]
inhibition at 10 µM [1]: 46%
inhibition at 10 µM [2]: 103%

Reference: patent publication US8455475B2 (Gruenenthal GmbH, priority 2009, dated 2013)
